Test results as given in patent US20160045482A1, “UREIDO-PYRAZOLE DERIVATIVES” (Respivert Limited, priority 2010, published 2016).

What was measured:
HRV16 [1] = assay: HRV-16 infection, assessment of virus load (TCID50) in MRC5 cells; format: cell-based, human rhinovirus 16; details: HRV16 0.1 MOI, 3 days
Description: Human rhinovirus RV16 (HRV16) was obtained from the American Type Culture Collection (Manassas, Va.). Viral stocks were generated by infecting Hela cells with HRV until 80% of the cells were cytopathic. MRC5 cells (human lung fibroblast, ATCC) were infected at 0.1 MOI (multiplicity of infection of 0.1) of HRV16 and incubated for 1 hr at 33° C. with gentle shaking to stimulate adsorption. The cells were then washed with PBS, fresh media (DMEM-5% FCS) was added and the cells were incubated for a further 72 hr. Supernatant (20 μL) was collected and 10-fold serial dilutions were prepared with DMEM containing 1% FCS. All titrations were performed by infecting confluent Hela cell monolayers with serially diluted supernatant (10^−1-10^−5) and then the cytopathic effect at each dilution 3 days after infection assessed by visual inspection. The cells were then stained with Crystal Violet for confirmation. The amount of virus required to infect 50% of Hela cells was calculated in each treatment as TCID50 (50% tissue culture infectious dose, U(unit)/20 μL). Compounds were added 2 hr before HRV16 infection and 1 hr after infection when non-infected HRV was washed out.

IRF-3 = assay: HRV-16 induced activation of IRF-3 in BEAS2B cells; format: cell-based, human; details: after 2 hr, at 10 MOI
Description: (§1) The cells were then collected by scraping on ice and nuclear extracts were prepared using a nuclear protein extraction kit (ActiveMotif, […], Belgium). NFκB activity and IRF3 activity were then measured using the TransAMTM NFκB (p65) ELISA kit or the TransAMTM IRF3 ELISA kit.

HRV16 [2] = assay: Assessment of HRV16 induced CPE in MRC5; format: cell-based, human rhinovirus 16; details: MRC5 cells; for IC50: Rhinovirus A, 96 h, HRV16 MOI of 1, 4 days, read-out: HRV16-induced CPE IC50 Value
Description: The supernatants were aspirated and fresh media was added and the preparations were then incubated for 4 days. Where appropriate, cells were pre-incubated with the test compound or DMSO for 2 hr, and the compounds and DMSO added again after washout of the virus. Supernatants were aspirated and incubated with methylene blue solution (2% formaldehyde, 10% methanol and 0.175% Methylene Blue) for 2 hr at RT. After washing, 1% SDS was added to each well, and plates were shaken lightly for 1-2 hr prior to reading the absorbance at 660 nm. The percentage inhibition for each well was calculated. The IC50 value was calculated from the concentration-response curve generated from the serial dilutions of the test compound.

IL-8 = IL-8 release activated by human rhinovirus in BEAS2B cells; format: cell-based; details: Homo sapiens, BEAS-2B; BEAS2B cells, MOI of 5, 72 hr; read-out: HRV16-induced IL-8 IC50 Value
Description: BEAS2B cells were infected with rhinovirus at an MOI of 5 and incubated for 2 hr at 33° C. with gentle shaking to enhance adsorption. Test compounds were added 2 hr before HRV infection and 2 hr after infection when residual extracellular HRV was washed out. The cells were then washed with PBS, fresh media was added and the cells were incubated for a further 72 hr. The supernatant was collected for assay of IL-8 concentrations using the Duoset ELISA development kit (R&D Systems, Minneapolis, Minn.).

ICAM-1 = assay: ICAM1 expression activated by human rhinovirus in BEAS2B cells (cell-based ELISA); details: for IC50: Homo sapiens, BEAS-2B, HRV16 inoculation (2 hr infection), read-out: HRV16-induced ICAM1 IC50 Value
Description: BEAS2B cells were infected with rhinovirus at an MOI of 5 and incubated for 2 hr at 33° C. with gentle shaking to enhance adsorption. Test compounds were added 2 hr before HRV infection and 2 hr after infection when residual extracellular HRV was washed out. The cells were then washed with PBS, fresh media was added and the cells were incubated for a further 72 hr. The supernatant was collected for assay of IL-8 concentrations using the Duoset ELISA development kit (R&D Systems, Minneapolis, Minn.). […] After appropriate incubation, cells were fixed with 4% formaldehyde in PBS. After quenching endogenous peroxidase by adding 0.1% sodium azide and 1% hydrogen peroxide, wells were washed with buffer (0.05% Tween in PBS: PBS-Tween). After incubation with the blocking solution (5% milk in PBS-Tween for 1 hr), cells were incubated with anti-human ICAM-1 antibody in 5% BSA PBS-Tween (1:500) overnight. Wells were then washed with PBS-Tween and incubated with the secondary antibody (HRP-conjugated anti-rabbit IgG, Dako Ltd.).

NFκB = assay: HRV-16 induced activation of NFκB in BEAS2B cells; format: cell-based, human; details: after 2 hr, at 10 MOI
Description: as §1

HRV16 mRNA = assay: Transcripts of HRV16 by PCR in MRC5 cellular extract; format: cell-based, human rhinovirus 16; details: MRC5 cells, HRV16 0.1 MOI, 3 days
Description: The MRC5 cells infected with virus (as described above) were used for viral RNA or mRNA detection. Total RNA extraction and reverse transcription were performed using TaqMan®Fast Cells-to-CT™ Kit (Ambion Inc. Austin Tex.). The gene transcript level of HRV16 (PrimerDesign Ltd, Southampton, UK), IFN (Applied Biosystems, Warrington, UK) and GAPDH, as a house-keeping gene (PrimerDesign Ltd, Southampton, UK) were quantified by real-time PCR using commercially available primers on a StepOnePlus™ RT-PCR system (Applied Biosystems, Warrington, UK). Variations in cDNA concentrations between different samples were corrected using the housekeeping gene, whereby the GAPDH concentration in each cDNA sample was calculated, and the cDNA diluted to contain equal amounts of GAPDH. Standard curves for GAPDH were generated by performing a dilution series of the untreated control cDNA. The relative amount of gene transcript present after different treatments was calculated and normalized by dividing the calculated value for the gene of interest by that of the house-keeping gene value.

HRV16 [3] = assay: HRV-16 infection, assessment of virus load (TCID50) in MRC5 cells; format: cell-based, human rhinovirus 16; details: pilot studies
rhinovirus = details: Jefferson and Tyrrell 2007; cited from earlier work
[4] = listed as Fluticasone propionate

SMILES | HRV16-induced CPE (in words) (HRV16 [2]) | IC50 (HRV16 [2]) [nM] | IC50 (IL-8) [nM] | other results
Cc1ccc(-n2nc(C(C)(C)C)cc2NC(=O)Nc2ccc(OCCN3CCOCC3)c3ccccc23)cc1 [BIRB-796] | – | – | – | HRV-16 virus load (extracellular) (HRV16 [1]): No effect; IRF-3 activation (HRV-16 induced) (IRF-3): tendency to inhibit
Cc1ccc(-n2nc(C(C)(C)C)cc2NC(=O)Nc2ccc(Oc3ccnc(NC(=O)N4CCCC4)c3)c3ccccc23)cc1 [Example 14, N-(4-(4-(3-(3-tert-Butyl-1-p-tolyl-1H-pyrazol-5-yl)ureido)naphthalen-1-yloxy)pyridin-2-yl)pyrrolidine-1-carboxamide] | inhibited HRV16-induced CPE in MRC5 cells in a concentration-dependent manner | 3.3 | – | –
Cc1ccc(-n2nc(C(C)(C)C)cc2NC(=O)Nc2ccc(Oc3ccnc(NC(N)=O)c3)c3ccccc23)cc1 [Example 30, 4-(4-(3-(3-tert-Butyl-1-p-tolyl-1H-pyrazol-5-yl)ureido)naphthalen-1-yloxy)pyridin-2-ylurea] | inhibited HRV16-induced CPE in MRC5 cells in a concentration-dependent manner | 2.9 | 0.019 | –
CNC(=O)Nc1cc(Oc2ccc(NC(=O)Nc3cc(C(C)(C)C)nn3-c3ccc(C)cc3)c3ccccc23)ccn1 [Example 37] | inhibited HRV16-induced CPE in MRC5 cells in a concentration-dependent manner | 24 | 0.12 | IC50 (ICAM-1): 0.029 nM
Cc1ccc(-n2nc(C(C)(C)C)cc2NC(=O)Nc2ccc(Oc3ccnc(NC(=O)N4CCOCC4)c3)c3ccccc23)cc1 [Example 43, N-(4-(4-(3-(3-tert-Butyl-1-p-tolyl-1H-pyrazol-5-yl)ureido)naphthalen-1-yloxy)pyridin-2-yl)morpholine-4-carboxamide] | inhibited HRV16-induced CPE in MRC5 cells in a concentration-dependent manner | 9.5 | 0.069 | –
Cc1ccc(-n2nc(C(C)(C)C)cc2NC(=O)Nc2ccc(Oc3ccnc(NC(=O)N4CCN(C)CC4)c3)c3ccccc23)cc1 [Example 44, N-(4-((4-(3-(3-(tert-Butyl)-1-(p-tolyl)-1H-pyrazol-5-yl)ureido)naphthalen-1-yl)oxy)pyridin-2-yl)-4-methylpiperazine-1-carboxamide] | inhibited HRV16-induced CPE in MRC5 cells in a concentration-dependent manner | 16.3 | 0.041 | IC50 (ICAM-1): 0.069 nM
Cc1ccc(-n2nc(C(C)(C)C)cc2NC(=O)Nc2ccc(Oc3ccnc(NC(=O)N(C)C)c3)c3ccccc23)cc1 [Example 45, 3-(4-((4-(3-(3-(tert-Butyl)-1-(p-tolyl)-1H-pyrazol-5-yl)ureido)naphthalen-1-yl)oxy)pyridin-2-yl)-1,1-dimethylurea] | inhibited HRV16-induced CPE in MRC5 cells in a concentration-dependent manner | 9.4 | 0.041 | IC50 (ICAM-1): 0.098 nM
Cc1ccc(-n2nc(C(C)(C)C)cc2NC(=O)Nc2ccc(Oc3ccnc(NC(=O)N4CC[C@@H](N(C)C)C4)c3)c3ccccc23)cc1 [Example 55, (R)-N-(4-(4-(3-(3-tert-Butyl-1-p-tolyl-1H-pyrazol-5-yl)ureido)naphthalen-1-yloxy)pyridin-2-yl)-3-(dimethylamino)pyrrolidine-1-carboxamide] | inhibited HRV16-induced CPE in MRC5 cells in a concentration-dependent manner | 14.3 | – | –
COc1cc(Nc2ncc(F)c(Nc3ccc4c(n3)NC(=O)C(C)(C)O4)n2)cc(OC)c1OC [Example R-406] | – | – | – | NFκB activation (HRV-16 induced) (NFκB): inhibited
CCC(=O)O[C@]1(C(=O)SCF)[C@H](C)C[C@H]2[C@@H]3C[C@H](F)C4=CC(=O)C=C[C@]4(C)[C@@]3(F)[C@@H](O)C[C@@]21C [fluticasone propionate] | – | – | – | ICAM-1 expression induced by HRV16 inoculation (in words) (ICAM-1; 2 hr infection): much more modest; Concentrations at which concentration-dependent effects on ICAM-1 are apparent, relative to Reference Compound 2 (ICAM-1; results not shown): 10,000 fold; HRV-16 virus load (extracellular) (HRV16 [1]): without effect; HRV-16 virus load (extracellular) (HRV16 [1]; [4]): No effect; NFκB activation (HRV-16 induced) (NFκB): no clear effect; NFκB activation (HRV-16 induced) (NFκB; [4]): No effect; IRF-3 activation (HRV-16 induced) (IRF-3): tendency to inhibit; HRV16 mRNA detected in cellular extracts (HRV16 mRNA): without effect
Cc1cc(CCCOc2c(C)cc(-c3noc(C(F)(F)F)n3)cc2C)on1 [pleconaril] | – | – | – | HRV-16 virus load (extracellular) (HRV16 [1]): clearly inhibits; HRV16 mRNA detected in cellular extracts (HRV16 mRNA): clearly inhibits; Effect of treatment time versus the point of inoculation with HRV16 (HRV16 [3]): essentially only effective if the drug was administered prior to infection; Activity against rhinovirus infections in clinical development (rhinovirus): active against rhinovirus infections
